Experimental findings from EP4682146A1, “COMPOSITION INCLUDING NOVEL PYRIDOINDOLE DERIVATIVE COMPOUND AS ACTIVE INGREDIENT FOR PREVENTION OR TREATMENT OF NEURODEGENERATIVE DISEASES” (Neurotarge Co., Ltd., priority 2023, dated 2024) are described below.

Bounds are passed on as bounds.

T1 sequence (P10636 1-441 isoform P10636-8): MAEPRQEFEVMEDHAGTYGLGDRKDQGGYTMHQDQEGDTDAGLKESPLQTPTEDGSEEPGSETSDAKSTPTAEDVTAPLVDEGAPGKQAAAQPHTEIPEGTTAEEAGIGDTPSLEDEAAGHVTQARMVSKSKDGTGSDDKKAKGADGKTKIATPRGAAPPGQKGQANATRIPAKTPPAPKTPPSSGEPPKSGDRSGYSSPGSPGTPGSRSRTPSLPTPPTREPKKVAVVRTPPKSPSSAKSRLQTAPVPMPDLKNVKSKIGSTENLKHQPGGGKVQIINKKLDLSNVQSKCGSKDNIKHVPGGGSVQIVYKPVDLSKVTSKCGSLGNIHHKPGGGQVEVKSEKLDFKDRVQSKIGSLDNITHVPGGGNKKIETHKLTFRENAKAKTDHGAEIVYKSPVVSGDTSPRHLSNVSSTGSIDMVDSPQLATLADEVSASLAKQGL
T1 sequence (O43761 whole entry): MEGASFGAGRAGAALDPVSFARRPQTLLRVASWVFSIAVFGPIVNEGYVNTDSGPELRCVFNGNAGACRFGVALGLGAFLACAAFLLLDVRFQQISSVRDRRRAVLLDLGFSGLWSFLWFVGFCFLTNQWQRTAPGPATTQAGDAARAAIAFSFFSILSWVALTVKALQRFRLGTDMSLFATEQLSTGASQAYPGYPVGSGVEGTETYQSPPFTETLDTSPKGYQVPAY

The assay has as its target T1, Tau-Synaptogyrin3 interaction (Homo sapiens, UniProt O43761+P10636).
T1 construct: expressed in transfected cells
Description: Cell-based split luciferase (NanoBit) protein complementary assay for Tau-Synaptogyrin3 interaction in stable cell line HEK293T-TK252-1E2. As to conditions: HEK293T-TK252-1E2 cells, 48 hrs compound treatment, L/F value (luciferase activity/fluorescent intensity) compared to DMSO control. The procedure: Live cell luciferase assay: Live cell luciferase activity was measured using NanoGlo® Live Cell Assay System (Cat# N2012. Promega, WI, USA), according to manufacturer's instruction. All microplate-based measurement was performed with BioTek Synergy H1 (Agilent. CA, USA).
For producing HEK293T-TK252 stable cell line for screening, BglII-linearized pTK252 was transfected to HEK293T cells. After 24 hrs transfection, the transfected cells were cultured in the culture media containing 1 µg/ml puromycin (10 mM in DMSO, Cat# J61278/ Alfa Aesar. ThermoFisher Korea, Seoul, Korea) for 9 days. Regular media change was performed in every 3 days with fresh puromycin of indicating concentration during the whole selection period. The selected cells were trypsinized and diluted to 5 cells/ml and seeded to 4x 96 well cell culture plates (100 µl/well), and cultured with the cell culture media containing 1 µg/ml puromycin for 11 days. 18 wells that contained only GFP-positive cells were selected for expansion, and cultured with the cell culture media containing 0.1-0.2 µg/ml puromycin for 14 days. 10 clones were discarded during the expansion due to emerging of non-GFP cells, and 8 clones were validated. The selected clone (1E2) was cultured with the cell culture media containing 0.5 µg/ml puromycin for further experiments.
3 µmol of 1,728 compounds were purchased from Otava Chemicals MB (Vilniaus, Lithuania), dissolved into 300 µl DMSO (10 mM) and stored at -80°C. 4x10^4 HEK293T-TK252-1E2 cells were seeded with 100 µl of the cell culture media into 96 white well cell culture plates (Cat# 30196. SPL, Seoul, Korea), 48 hrs prior to compound treatment. For 10 µM compound treatment, 10 mM compound stock was diluted to 50 µM with the cell culture media, and 25 µl of the diluted compound was added to the designated wells of the 96 well plates. For dose-response experiments, the amount of compounds for dilution was adjusted to fit the volume indicated above. After 48 hrs compound treatment, the cells were washed once with OptiMEM and live cell luciferase activity, fluorescent intensity and fluorescence area scan was measured.
1,728 compounds were treated at 10 µM to HEK293T-TK252-1E2 cells and incubated for 48 hrs. […] Single wash step with culture media without FBS was included before measurement to discard dead cells and to remove FBS that affects luciferase assay. […] Fluorescent intensity was taken for normalization, which is expected to be proportion to the cell number at the measuring point. L/F value which is luciferase activity normalized with fluorescent intensity (L/F = Luciferase activity/ Fluorescent intensity) was calculated for all measurements and compared to L/F value of DMSO controls to calculated the size of inhibitory effect. […] Fluorescence area scan (FA) performed right after luciferase activity and fluorescent intensity measurement, to validate total remaining fluorescent cells in a well as a proxy to the cellular toxicity. FA value was in proportion to WST assay results (data not shown), and average CV of triplicates of all measurements was 0.04.
61 compounds were further tested for dose-response profile, based on inhibitory effect that was measured by L/F value (<60%) and FA-based cell viability (>90%) at 10 µM compared to DMSO control. 10 compounds were considered as hit compounds through three times of reproduction.
In general, IC50 refers to the midpoint of a concentration-inhibition curve. As to `Cc1ccc(C(=O)N2CCc3[nH]c4ccc(-c5ccc(C#N)cc5)cc4c3C2)cn1` [Formula 54], the IC50 lay within 3 to 12 µM.

Regarding `Cc1ccc(C(=O)N2CCc3[nH]c4ccc(-c5ccc(C6CCCCC6)cc5)cc4c3C2)cn1` [Formula 67, (8-(4-Cyclohexylphenyl)-1,3,4,5-tetrahydro-2H-pyrido[4,3-b]indol-2-yl)(6-methylpyridin-3-yl)methanone], the IC50 fell in the range of 3 to 12 µM.

Turning to `CCc1ccc(C(=O)N2CCc3[nH]c4ccc(-c5ccccc5)cc4c3C2)cc1` [Formula 16, (4-ethylphenyl)(8-phenyl-1,3,4,5-tetrahydro-2H-pyrido[4,3-b]indol-2-yl)methanone], the IC50 fell in the range of 3 to 12 µM.

Regarding `Cc1ccc(C(=O)N2CCc3[nH]c4ccc(-c5cccc(C#N)c5)cc4c3C2)cn1` [Formula 57, 3-(2-(6-Methylnicotinoyl)-2,3,4,5-tetrahydro-1H-pyrido[4,3-b]indol-8-yl)benzonitrile], the IC50 lay in the range of 3 to 12 µM.

Turning to `Nc1ccc(-c2ccc3[nH]c4c(c3c2)CN(C(=O)c2ccccc2)CC4)cc1` [Formula 72, (8-(4-Aminophenyl)-1,3,4,5-tetrahydro-2H-pyrido[4,3-b]indol-2-yl)(phenyl)methanone], the IC50 was below 3 µM.

With `Cc1ccccc1-c1ccc2[nH]c3c(c2c1)CN(C(=O)c1cccc(Cl)c1)CC3` [Formula 26, (3-chlorophenyl)(8-(o-tolyl)-1,3,4,5-tetrahydro-2H-pyrido[4,3-b]indol-2-yl)methanone], the IC50 was in the range of 12 to 25 µM.

In the case of `Cc1ccc(-c2ccc3c(c2)c2c(n3C)CCN(C(=O)c3ccccc3)C2)cc1` [Formula 43, (5-methyl-8-(p-tolyl)-1,3,4,5-tetrahydro-2H-pyrido[4,3-b]indol-2-yl)(phenyl)methanone], the IC50 was in the range of 3 to 12 µM.

`N#Cc1ccccc1-c1ccc2[nH]c3c(c2c1)CN(C(=O)c1ccccc1)CC3` [Formula 61, 2-(2-benzoyl-2,3,4,5-tetrahydro-1H-pyrido[4,3-b]indol-8-yl)benzonitrile]: the IC50 fell in the range of 3 to 12 µM.

For `CCn1c2c(c3cc(-c4ccc(C)cc4)ccc31)CN(C(=O)c1ccccc1)CC2` [Formula 45, (5-ethyl-8-(p-tolyl)-1,3,4,5-tetrahydro-2H-pyrido[4,3-b]indol-2-yl)(phenyl)methanone], the IC50 lay in the range of 3 to 12 µM.

As to `Cc1ccc(-c2ccc3c(c2)c2c(n3C)CCN(C(=O)c3cccnc3)C2)cc1` [Formula 44, (5-methyl-8-(p-tolyl)-1,3,4,5-tetrahydro-2H-pyrido[4,3-b]indol-2-yl)(pyridin-3-yl)methanone], the IC50 is below 3 µM.

In the case of `O=C(N1CCOCC1)N1CCc2[nH]c3ccc(-c4ccccc4)cc3c2C1` [Formula 19, Morpholino(8-phenyl-1,3,4,5-tetrahydro-2H-pyrido[4,3-b]indol-2-yl)methanone], the IC50 fell in the range of 3 to 12 µM.

Consider `Cc1ccc(C(=O)N2CCc3[nH]c4ccc(-c5ccccc5)cc4c3C2)cn1` [Formula 5, (6-methylpyridin-3-yl)(8-phenyl-1,3,4,5-tetrahydro-2H-pyrido[4,3-b]indol-2-yl)methanone], for which the IC50 lay within 3 to 12 µM.

For the compound `O=C(c1ccc(C(F)(F)F)cc1)N1CCc2[nH]c3ccc(-c4ccccc4)cc3c2C1` [Formula 12, (8-phenyl-1,3,4,5-tetrahydro-2H-pyrido[4,3-b]indol-2-yl)(4-(trifluoromethyl)phenyl)methanone], the IC50 lay within 12 to 25 µM.

Regarding `O=C(c1ccccc1)N1CCc2[nH]c3ccc(-c4ccc(Cl)cc4)cc3c2C1` [Formula 70, (8-(4-chlorophenyl)-1,3,4,5-tetrahydro-2H-pyrido[4,3-b]indol-2-yl)(phenyl)methanone], the IC50 is below 3 µM.

As for `Cc1ccccc1-c1ccc2[nH]c3c(c2c1)CN(C(=O)c1ccncc1)CC3` [Formula 21, Pyridin-4-yl(8-(o-tolyl)-1,3,4,5-tetrahydro-2H-pyrido[4,3-b]indol-2-yl)methanone], the IC50 fell in the range of 3 to 12 µM.

Take `O=C(c1cccnc1)N1CCc2[nH]c3cc(-c4ccccc4)ccc3c2C1` [Formula 35, (7-phenyl-1,3,4,5-tetrahydro-2H-pyrido[4,3-b]indol-2-yl)(pyridin-3-yl)methanone]: the IC50 lay within 3 to 12 µM.

As for `Cn1ccc2c(C(=O)N3CCc4[nH]c5ccc(-c6ccccc6)cc5c4C3)cccc21` [Formula 10, (1-methyl-1H-indol-4-yl)(8-phenyl-1,3,4,5-tetrahydro-2H-pyrido[4,3-b]indol-2-yl)methanone], the IC50 was in the range of 3 to 12 µM.

Take `Cc1cncc(C(=O)N2CCc3[nH]c4ccc(-c5ccccc5C)cc4c3C2)c1` [Formula 22, (5-methylpyridin-3-yl)(8-(o-tolyl)-1,3,4,5-tetrahydro-2H-pyrido[4,3-b]indol-2-yl)methanone]: the IC50 fell in the range of 3 to 12 µM.

`Cc1ccc(-c2ccc3[nH]c4c(c3c2)CN(C(=O)c2ccc(N(C)C)cc2)CC4)cc1` [Formula 69, (4-(Dimethylamino)phenyl)(8-(p-tolyl)-1,3,4,5-tetrahydro-2H-pyrido[4,3-b]indol-2-yl)methanone]: the IC50 lay in the range of 3 to 12 µM.

Turning to `Cc1ccc(-c2ccc3[nH]c4c(c3c2)CN(C(=O)c2ccccc2)CC4)cn1` [Formula 47, (8-(6-methylpyridin-3-yl)-1,3,4,5-tetrahydro-2H-pyrido[4,3-b]indol-2-yl)(phenyl)methanone], the IC50 fell in the range of 3 to 12 µM.

As for `Cc1cccc(C(=O)N2CCc3[nH]c4ccc(-c5ccccc5)cc4c3C2)c1` [Formula 15, (8-phenyl-1,3,4,5-tetrahydro-2H-pyrido[4,3-b]indol-2-yl)(m-tolyl)methanone], the IC50 was 3 to 12 µM.

Take `Cc1ccc(-c2ccc3[nH]c4c(c3c2)CN(C(=S)Nc2ccccc2)CC4)cc1` [Formula 74, N-phenyl-8-(p-tolyl)-1,3,4,5-tetrahydro-2H-pyrido[4,3-b]indole-2-carbothioamide]: the IC50 fell in the range of 3 to 12 µM.

For the compound `Cc1ccc(C(=O)N2CCc3[nH]c4ccc(-c5ccccc5C#N)cc4c3C2)cc1` [Formula 59, 2-(2-(4-Methylbenzoyl)-2,3,4,5-tetrahydro-1H-pyrido[4,3-b]indol-8-yl)benzonitrile], the IC50 was 3 to 12 µM.

Consider `O=C(c1ccccc1)N1CCc2[nH]c3ccc(-c4ccc(F)cc4)cc3c2C1` [Formula 64, (8-(4-fluorophenyl)-1,3,4,5-tetrahydro-2H-pyrido[4,3-b]indol-2-yl)(phenyl)methanone], for which the IC50 was below 3 µM.

Take `Cc1ccc(-c2ccc3[nH]c4c(c3c2)CN(C(=O)c2cccnc2)CC4)cc1` [Formula 29, Pyridin-3-yl(8-(p-tolyl)-1,3,4,5-tetrahydro-2H-pyrido[4,3-b]indol-2-yl)methanone]: the IC50 was below 3 µM.

Regarding `Cc1cccc(C(=O)N2CCc3[nH]c4ccc(-c5ccc(C#N)cc5)cc4c3C2)c1` [Formula 53], the IC50 was in the range of 3 to 12 µM.

As to `Cc1cnc(C(=O)N2CCc3[nH]c4ccc(-c5ccccc5)cc4c3C2)cn1` [Formula 6, (5-methylpyrazin-2-yl)(8-phenyl-1,3,4,5-tetrahydro-2H-pyrido[4,3-b]indol-2-yl)methanone], the IC50 was in the range of 12 to 25 µM.

Take `O=C(c1nccs1)N1CCc2[nH]c3ccc(-c4ccccc4)cc3c2C1` [Formula 11, (8-phenyl-1,3,4,5-tetrahydro-2H-pyrido[4,3-b]indol-2-yl)(thiazol-2-yl)methanone]: the IC50 is 3 to 12 µM.

Turning to `Cc1ccccc1-c1ccc2[nH]c3c(c2c1)CN(C(=O)c1ccccc1)CC3` [Formula 23, Phenyl(8-(o-tolyl)-1,3,4,5-tetrahydro-2H-pyrido[4,3-b]indol-2-yl)methanone], the IC50 fell in the range of 3 to 12 µM.

In the case of `Cc1cccc(-c2ccc3[nH]c4c(c3c2)CN(C(=O)c2cccnc2)CC4)c1` [Formula 27, Pyridin-3-yl(8-(m-tolyl)-1,3,4,5-tetrahydro-2H-pyrido[4,3-b]indol-2-yl)methanone], the half-maximal inhibitory concentration (IC50) was below 3 µM.

In the case of `Cc1ccc(-c2ccc3[nH]c4c(c3c2)CN(C(=O)c2ccc(C)nc2)CC4)cc1` [Formula 40, (6-methylpyridin-3-yl)(8-(p-tolyl)-1,3,4,5-tetrahydro-2H-pyrido[4,3-b]indol-2-yl)methanone], the IC50 is below 3 µM.
